Test results as given in article PMC4289617 (Journal of medicinal chemistry, 2010).
Peptide text beside a SMILES is read from it.

Biological target: WDR5 (Homo sapiens, UniProt P61964)
Experiment: FP-based competitive binding assay
Conditions: for times increase in binding affinity upon N-terminal acetylation: acetylated vs free amino group peptide; for binding to WDR5: up to the concentrations tested; for times less potent than Ac-3mer: compared to Ac-3mer (Ac-ARA-NH2)

For `CC(=O)N[C@@H](C)C(=O)N[C@@H](CCCNC(=N)N)C(=O)N[C@@H](C)C(=O)N[C@@H](CCC(=O)O)C(=O)N[C@H](C(=O)N[C@@H](Cc1c[nH]cn1)C(=O)N[C@@H](CC(C)C)C(=O)N[C@@H](CCCNC(=N)N)C(=O)N[C@@H](CCCCN)C(=O)N[C@@H](CO)C(N)=O)C(C)C` [Ac-10mer], the “times more potent than the WIN peptide” value (Ki ratio vs WIN peptide) was 50.
`CC(=O)N[C@@H](C)C(=O)N[C@@H](CCCNC(=N)N)C(=O)N[C@H](C(N)=O)[C@@H](C)O` [Ac-H3-3mer, Ac-ART-NH2] (Ac-Ala-Arg-Thr-NH2) was tested, and the “times increase in binding affinity upon N-terminal acetylation” value (from here on “times increase”) was 1500 and the “times more potent than Ac-ARA-NH2” value (compared to Ac-ARA-NH2) was 6.
For `CC(=O)N[C@@H](C)C(=O)N[C@@H](CCCNC(=N)N)C(=O)N[C@H](C(=O)N[C@@H](CCCCN)C(=O)N[C@@H](CCC(N)=O)C(=O)N[C@H](C(=O)N[C@@H](C)C(=O)N[C@@H](CCCNC(=N)N)C(=O)N[C@@H](CCCCN)C(=O)N[C@@H](CO)C(N)=O)[C@@H](C)O)[C@@H](C)O` [Ac-H3-10mer], the “times increase” value was over 10000.
`C[C@H](N)C(=O)N[C@@H](CCCNC(=N)N)C(=O)N[C@@H](C)C(N)=O` [H2N-3mer, H2N-ARA-NH2] (H-Ala-Arg-Ala-NH2) was tested, and the “binding to WDR5” value was “does not bind to WDR5”.
In the case of `CC(=O)N[C@@H](C)C(=O)N[C@@H](CCCNC(=N)N)C(=O)N(C)[C@@H](C)C(N)=O` [Δ1, Ac-AR-(N-Me)A-NH2], the “binding to WDR5” value was “complete loss of its binding to WDR5”.
With `CC(=O)N[C@@H](C)C(=O)N[C@@H](CCCNC(=N)N)C(=O)N[C@@H](C)C(=O)N(C)C` [Δ2b, Ac-ARA-CONMe2] (Ac-Ala-Arg-Ala-NMe2) the “times less potent than Ac-3mer” value was 50.
`COC(=O)[C@H](C)NC(=O)[C@H](CCCNC(=N)N)NC(=O)[C@H](C)NC(C)=O` [Δ2c, Ac-ARA-COOCH3] (Ac-Ala-Arg-Ala-OMe) was tested, and the “times less potent than Ac-3mer” value was 10.
With “Ac-ARAEVHL-NH2 (N-terminus and C-terminus assumed) [Ac-7mer]” the “fold decrease in binding affinity vs Ac-10mer” value (compared to Ac-10mer) was 10.
With Ac-ARTKQTA-NH2 [Ac-H3-7mer, Ac-ARTKQTA] the “times increase” value was over 10000.
